Measurements reported in the NIST ThermoML archive (doi:10.1021/acs.jced.5b00940).

Assay: mn = molality of the nth substance listed, in mol/kg
Conditions: 100 kPa, Liquid; for viscosity: Capillary tube (Ostwald / Ubbelohde) method; for mass density: Vibrating tube method

CC[N+](CC)(CC)CC.[Br-] [tetraethylammonium bromide] + O
Conditions	mass density, 288.15 K [kg/m3]	mass density, 298.15 K [kg/m3]	mass density, 308.15 K [kg/m3]	mass density, 318.15 K [kg/m3]	viscosity, 288.15 K [mPa·s]	viscosity, 298.15 K [mPa·s]	viscosity, 308.15 K [mPa·s]	viscosity, 318.15 K [mPa·s]
m1 = 0.05	1001.83	998.859	993.878	991.993	1.16	0.904	0.731	0.612
m1 = 0.5	1017.91	1015.99	1010.17	1007.21	1.341	1.043	0.836	0.7
m1 = 1	1035.82	1032.57	1027.25	1023.5	1.55	1.209	0.959	0.792
m1 = 2	1060.98	1057.94	1051.91	1046.83	1.942	1.513	1.189	0.952
